Columns and labels:
[1] = tested on: HbeAg; assay: Synthesis/secretion of HbeAg in hepatoma cell line, semi-quantitative ELISA; assay type: cell-based, hepatitis B virus; conditions: HepG2 2.2.1 cells, 22 hours
Description: (§1) The effects of cyclohexenone compounds of Antrodia camphorata purified from Example 1 on synthesis of HbsAg and HbeAg were tested in this example. The compound 4-hydroxy-2,3-dimethoxy-6-methyl-5(3,7,11-trimethyl-dodeca-2,6,10-trienyl)-cyclohex-2-enone from example 1 was added into the culture media of hepatoma cell line HepG2 2.2.1 to determine the synthesis of HbsAg and HbeAg with the semi-quantitative enzyme-linked immunoabsorbent assay (ELISA). These two makers were used to assess the effectiveness of cyclohexenone in HBV inhibition. […]
(§2) The HepG2 2.2.1 cells were cultivated in minimum essential medium (MEM, Gibco Co., USA) containing 12 essential amino acids, glutamine, 8 vitamins, and supplemented with 10% fetal bovine serum and 200 μg/ml of antibiotic G418 for 24 hours. […] The assay was based on formation of sandwich complexes of antibody-antigen-antibody/enzyme and stained with O-phenylenediamine (OPD) color development solution and the results were expressed as absorbance units at 450 nm. Specimens with absorbance values above the cut off value are taken as positive for HbsAg and HBeAg. […]

[2] = tested on: HbsAg; assay: Synthesis/secretion of HbsAg in hepatoma cell line, semi-quantitative ELISA; assay type: cell-based, hepatitis B virus; conditions: HepG2 2.2.1 cells, 22 hours
Description: as §1, §2

[3] = tested on: hepatoma cell line HepG2 2.2.15; assay: In vitro cytotoxic test on hepatoma cell line, MTT assay, survival rates; assay type: cell-based, human; conditions: HepG2 2.2.1 cells, 10 μg/ml, 22 hours, compared with blank group
Description: Hepatoma cell inhibiting effects of cyclohexenone compounds of Antrodia camphorata from example 1 were assessed according to the anticancer-drug screening model of National Cancer Institute (NCI). The compound 4-hydroxy-2,3-dimethoxy-6-methyl-5(3,7,11-trimethyl-dodeca-2,6,10-trienyl)-cyclohex-2-enone from example 1 was added into the culture media of hepatoma cell line HepG2 2.2.15 to test the survival rates. Survival of cells was analyzed using MTT assay. HepG2 2.2.15 cell line was derived from human hepatoma, which can secrete infectious HBV.
MTT assay is commonly used to analyze cell proliferation, survival rate of viable cells and cytotoxicity. MTT (3[4,5-dimethylthiazol-2-yl]-2,5-diphenyltetrazolium bromide) is a yellow dye which can be converted to water-insoluble purple formazan on the reductive cleavage of its tetrazolium ring by the succinate tetrazolium reductase in mitrochondria of cells. The amount of formazan produced is used to detect the number of viable cells and calculate the survival rates.
The HepG2 2.2.1 cells were cultivated in minimum essential medium (MEM, Gibco Co., USA) containing 12 essential amino acids, glutamine, 8 vitamins, and supplemented with 10% fetal bovine serum and 200 μg/ml of antibiotic G418 for 24 hours. […] The absorbances were measured at 570 nm with an ELISA Reader and compared with that of the blank group to calculate the survival rates.

## COC1=C(OC)C(O)C(C/C=C(\C)CC/C=C(\C)CCC=C(C)C)C(C)C1=O (centres unmarked) [cyclohexenone from Antrodia camphorata, 4-hydroxy-2,3-dimethoxy-6-methyl-5(3,7,11-trimethyl-dodeca-2,6,10-trienyl)-cyclohex-2-enone]
[1]; 0.1 μg/ml
  Synthesis of HbeAg: below 84%
[1]; 1 μg/ml
  Synthesis of HbeAg (decrease could reach to as low as): 57%
[2]; 0.1 μg/ml
  Synthesis of HbsAg: below 60%
[2]; 10 μg/ml
  Synthesis of HbsAg (decrease could reach to as low as): 28%
[3]
  cell survival rates: lower than 81%

From patent US7411003B1, “Inhibition of Hepatitis B virus by cyclohexenone compounds from Antrodia camphorata” (Golden Biotechnology Corporation, priority 2007, dated 2008)
